Measured values taken from patent US5061691A, “Enkephalin analogs” (Kabushiki Kaisha Vitamin Kenkyuso, priority 1987, dated 1991).
Read-outs that look alike come from different tables or passages of the source. Peptide text beside a SMILES is read from it.

Key:
[1] = target: T1, mouse vas deferens (MVD) (Mus musculus, UniProt P32300); assay type: cell-based
[2] = target: guinea pig ileum (GPI) (Cavia porcellus, UniProt P97266); conditions: value from Shimohigashi et al., Peptide Chemistry 1985 p. 51 (1986); cited from earlier work
[3] = target: T1, mouse vas deferens (MVD); conditions: cited from earlier work
[4] = test system: μ and δ opiate receptors; conditions: Lutz et al., Eur. J. Pharmacol. 111, 257 (1985); cited from earlier work
[5] = i.c.v. or i.v. administration; cited from earlier work

T1 sequence (P32300 whole entry): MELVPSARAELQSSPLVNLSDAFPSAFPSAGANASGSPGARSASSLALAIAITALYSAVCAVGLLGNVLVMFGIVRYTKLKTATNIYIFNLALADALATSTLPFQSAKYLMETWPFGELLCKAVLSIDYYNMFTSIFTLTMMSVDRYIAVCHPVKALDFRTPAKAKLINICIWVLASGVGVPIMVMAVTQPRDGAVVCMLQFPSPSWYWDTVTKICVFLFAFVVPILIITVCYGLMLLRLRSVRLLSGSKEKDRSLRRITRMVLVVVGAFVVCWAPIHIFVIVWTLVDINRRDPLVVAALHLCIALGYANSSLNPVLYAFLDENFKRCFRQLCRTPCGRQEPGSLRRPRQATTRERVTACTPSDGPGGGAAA
Chain of guinea pig ileum (GPI) (P97266 whole entry): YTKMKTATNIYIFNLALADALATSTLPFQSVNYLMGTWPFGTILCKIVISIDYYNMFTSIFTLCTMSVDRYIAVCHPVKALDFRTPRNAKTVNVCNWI

Compound: NC(=O)[C@@H]1CCCN1C(=O)[C@H](Cc1ccccc1)NC(=O)[C@@H]1CCCN1C(=O)[C@@H](N)Cc1ccc(O)cc1 [Morphiceptin, H--Tyr--Pro--Phe--Pro--NH2] (H-YPFP-NH2)
- Activity ratio MVD/GPI [1]: 5.7

Compound: (H--Tyr--D--Ala--Gly--NH--CH2 --)2 [DTRE2]
- IC50 [2]: 440 nM
- opiate activity and selectivity in bioassays (GPI and MVD assays) ([3]; GPI and MVD bioassays, Shimohigashi et al. (1986)): morphine-like activities and greater selectivity for μ than for δ
- Activity ratio MVD/GPI ([3]; ratio of IC50, from Shimohigashi et al., Peptide Chemistry 1985 p. 51 (1986)): 6.1
- IC50 ([3]; value from Shimohigashi et al., Peptide Chemistry 1985 p. 51 (1986)): 2700 nM
- selectivity for μ than for δ in receptor binding assay [4]: about 400 fold

Compound: β -Endorphin: consists of 31 amino acid residues and is a fragment of β -lipotropin (YGGFMTSEKSQTPLVTLFKNAIIKNAYKKGE; Beta-endorphin; UniProt P01189 237-267, looked up)
- analgesic activity [5]: marked and long-lived analgesic activity
